Source: ChEMBL document CHEMBL3991601, “The target landscape of clinical kinase drugs” (Science, 2017)
pKd: −log10 of the molar value. The source made the active and inactive calls. Rule as the data show it, for most assays here: actives have a measured Kd and inactives only a lower limit.

Key:
[1] = biological target: T1, Ribosyldihydronicotinamide dehydrogenase [quinone] (Homo sapiens, UniProt P16083)
T1 sequence (P16083 whole entry): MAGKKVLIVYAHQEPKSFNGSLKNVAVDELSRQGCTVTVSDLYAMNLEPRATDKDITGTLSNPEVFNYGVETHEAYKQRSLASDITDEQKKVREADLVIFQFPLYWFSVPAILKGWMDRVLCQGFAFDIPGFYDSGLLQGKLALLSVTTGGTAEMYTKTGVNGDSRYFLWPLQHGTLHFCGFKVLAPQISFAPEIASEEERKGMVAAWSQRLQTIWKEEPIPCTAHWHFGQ

Myosin-14 = Myosin-14 (Homo sapiens, UniProt Q7Z406)
[2] = biological target: T2, Serine/threonine-protein kinase ULK3 (Homo sapiens, UniProt Q6PHR2)
T2 sequence (Q6PHR2 whole entry): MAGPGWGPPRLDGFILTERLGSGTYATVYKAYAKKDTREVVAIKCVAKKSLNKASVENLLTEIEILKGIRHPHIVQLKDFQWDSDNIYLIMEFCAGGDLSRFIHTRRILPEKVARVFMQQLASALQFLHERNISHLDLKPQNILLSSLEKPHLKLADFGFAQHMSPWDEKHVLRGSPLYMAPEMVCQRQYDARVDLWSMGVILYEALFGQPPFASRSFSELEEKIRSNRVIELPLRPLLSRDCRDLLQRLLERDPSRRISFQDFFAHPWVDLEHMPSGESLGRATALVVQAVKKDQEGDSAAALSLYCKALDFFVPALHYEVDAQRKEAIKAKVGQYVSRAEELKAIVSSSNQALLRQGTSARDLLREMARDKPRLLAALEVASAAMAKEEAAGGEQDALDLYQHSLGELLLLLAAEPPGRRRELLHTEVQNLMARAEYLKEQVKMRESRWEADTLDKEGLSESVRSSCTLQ

[3] = biological target: Calcium/calmodulin-dependent protein kinase type II subunit gamma (Homo sapiens, UniProt Q13555)
Calcium/calmodulin-dependent protein kinase type II subunit gamma, sequence (Q13555 whole entry): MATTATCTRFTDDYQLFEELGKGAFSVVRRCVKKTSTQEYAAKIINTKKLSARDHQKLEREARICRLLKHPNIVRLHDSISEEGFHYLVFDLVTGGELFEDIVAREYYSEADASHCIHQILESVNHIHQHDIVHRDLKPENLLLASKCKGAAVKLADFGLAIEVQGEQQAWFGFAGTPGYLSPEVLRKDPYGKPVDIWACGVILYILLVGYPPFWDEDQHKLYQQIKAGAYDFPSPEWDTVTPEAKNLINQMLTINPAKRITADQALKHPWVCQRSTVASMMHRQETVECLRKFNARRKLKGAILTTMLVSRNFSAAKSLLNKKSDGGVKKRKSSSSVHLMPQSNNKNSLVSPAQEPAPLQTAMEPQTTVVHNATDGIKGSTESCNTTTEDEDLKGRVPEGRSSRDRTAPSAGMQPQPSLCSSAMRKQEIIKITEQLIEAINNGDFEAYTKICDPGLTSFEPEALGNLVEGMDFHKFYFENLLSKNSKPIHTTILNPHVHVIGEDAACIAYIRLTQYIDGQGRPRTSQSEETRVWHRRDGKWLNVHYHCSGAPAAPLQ

[4] = biological target: Mitogen-activated protein kinase kinase kinase 4 (Homo sapiens, UniProt Q9Y6R4)
Mitogen-activated protein kinase kinase kinase 4, sequence (Q9Y6R4 whole entry): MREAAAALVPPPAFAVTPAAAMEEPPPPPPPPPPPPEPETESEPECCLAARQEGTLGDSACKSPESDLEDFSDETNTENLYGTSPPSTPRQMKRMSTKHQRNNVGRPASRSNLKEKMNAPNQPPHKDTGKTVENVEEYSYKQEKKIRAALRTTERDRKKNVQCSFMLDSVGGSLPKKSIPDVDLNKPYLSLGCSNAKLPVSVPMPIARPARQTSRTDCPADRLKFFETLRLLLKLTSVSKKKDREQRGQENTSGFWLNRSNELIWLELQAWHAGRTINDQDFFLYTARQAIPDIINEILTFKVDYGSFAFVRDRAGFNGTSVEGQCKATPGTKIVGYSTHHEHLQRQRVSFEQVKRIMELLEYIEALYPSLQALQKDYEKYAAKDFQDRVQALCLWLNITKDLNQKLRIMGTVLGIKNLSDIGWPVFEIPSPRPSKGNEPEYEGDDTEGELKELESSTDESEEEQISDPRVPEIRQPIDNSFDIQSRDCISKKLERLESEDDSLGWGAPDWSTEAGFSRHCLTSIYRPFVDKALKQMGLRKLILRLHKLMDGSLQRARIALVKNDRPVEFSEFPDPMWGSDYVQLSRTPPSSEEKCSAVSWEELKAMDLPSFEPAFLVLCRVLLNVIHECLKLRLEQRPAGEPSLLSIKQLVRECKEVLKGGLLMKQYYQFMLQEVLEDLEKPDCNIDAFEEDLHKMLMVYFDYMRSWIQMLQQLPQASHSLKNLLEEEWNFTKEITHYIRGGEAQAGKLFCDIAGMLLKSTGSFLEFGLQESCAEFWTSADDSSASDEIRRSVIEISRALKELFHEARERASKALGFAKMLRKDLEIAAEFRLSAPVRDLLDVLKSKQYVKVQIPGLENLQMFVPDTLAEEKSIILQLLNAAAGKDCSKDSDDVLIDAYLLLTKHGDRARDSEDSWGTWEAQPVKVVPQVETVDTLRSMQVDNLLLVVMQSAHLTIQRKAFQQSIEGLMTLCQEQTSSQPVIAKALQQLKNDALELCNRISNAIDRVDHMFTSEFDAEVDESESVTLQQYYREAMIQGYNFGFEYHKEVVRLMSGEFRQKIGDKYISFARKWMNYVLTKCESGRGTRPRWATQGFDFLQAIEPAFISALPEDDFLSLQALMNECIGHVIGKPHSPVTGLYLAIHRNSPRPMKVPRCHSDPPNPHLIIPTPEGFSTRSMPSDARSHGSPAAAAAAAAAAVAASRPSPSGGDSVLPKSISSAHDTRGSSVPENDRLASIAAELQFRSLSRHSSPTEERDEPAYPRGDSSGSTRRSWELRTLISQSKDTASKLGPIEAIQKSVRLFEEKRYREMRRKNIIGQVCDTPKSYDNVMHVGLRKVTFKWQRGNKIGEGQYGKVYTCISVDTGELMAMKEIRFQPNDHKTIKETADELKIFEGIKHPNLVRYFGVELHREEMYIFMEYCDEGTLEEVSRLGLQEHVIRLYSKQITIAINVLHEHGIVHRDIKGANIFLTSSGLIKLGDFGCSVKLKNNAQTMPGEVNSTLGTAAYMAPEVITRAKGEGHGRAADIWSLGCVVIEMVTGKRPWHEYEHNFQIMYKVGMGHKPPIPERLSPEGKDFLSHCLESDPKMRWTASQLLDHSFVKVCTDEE

[5] = biological target: Cyclin-dependent kinase 1 (Homo sapiens, UniProt P06493)
Cyclin-dependent kinase 1, sequence (P06493 whole entry): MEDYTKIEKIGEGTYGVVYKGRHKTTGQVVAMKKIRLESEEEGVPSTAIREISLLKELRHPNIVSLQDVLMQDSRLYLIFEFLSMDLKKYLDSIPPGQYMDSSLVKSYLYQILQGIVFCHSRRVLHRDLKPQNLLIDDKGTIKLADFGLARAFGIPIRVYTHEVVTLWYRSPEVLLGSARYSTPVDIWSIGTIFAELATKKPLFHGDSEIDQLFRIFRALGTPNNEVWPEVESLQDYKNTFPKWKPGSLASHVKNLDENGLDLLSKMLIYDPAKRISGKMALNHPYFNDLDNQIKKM

Insulin receptor = Insulin receptor (Homo sapiens, UniProt P06213)
Insulin receptor, sequence (P06213 28-758 limits assumed): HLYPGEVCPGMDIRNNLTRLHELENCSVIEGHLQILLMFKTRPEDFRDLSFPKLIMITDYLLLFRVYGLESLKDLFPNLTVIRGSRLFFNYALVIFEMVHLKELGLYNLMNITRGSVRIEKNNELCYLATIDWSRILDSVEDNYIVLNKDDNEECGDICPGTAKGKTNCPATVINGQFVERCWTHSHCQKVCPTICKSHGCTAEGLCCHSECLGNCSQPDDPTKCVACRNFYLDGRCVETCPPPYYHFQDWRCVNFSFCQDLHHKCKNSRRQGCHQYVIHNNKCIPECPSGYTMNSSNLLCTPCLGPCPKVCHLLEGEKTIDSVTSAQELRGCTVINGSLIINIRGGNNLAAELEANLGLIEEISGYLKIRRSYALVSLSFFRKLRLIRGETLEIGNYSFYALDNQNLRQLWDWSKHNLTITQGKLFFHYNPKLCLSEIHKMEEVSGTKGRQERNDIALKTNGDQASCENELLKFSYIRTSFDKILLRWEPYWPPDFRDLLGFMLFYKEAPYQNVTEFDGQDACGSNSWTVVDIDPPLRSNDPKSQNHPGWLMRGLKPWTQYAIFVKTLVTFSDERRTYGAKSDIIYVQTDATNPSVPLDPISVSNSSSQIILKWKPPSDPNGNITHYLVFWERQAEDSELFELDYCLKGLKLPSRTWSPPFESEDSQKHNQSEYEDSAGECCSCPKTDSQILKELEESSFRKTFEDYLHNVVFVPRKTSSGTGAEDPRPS
Insulin receptor, sequence (P06213 763-1382 limits assumed): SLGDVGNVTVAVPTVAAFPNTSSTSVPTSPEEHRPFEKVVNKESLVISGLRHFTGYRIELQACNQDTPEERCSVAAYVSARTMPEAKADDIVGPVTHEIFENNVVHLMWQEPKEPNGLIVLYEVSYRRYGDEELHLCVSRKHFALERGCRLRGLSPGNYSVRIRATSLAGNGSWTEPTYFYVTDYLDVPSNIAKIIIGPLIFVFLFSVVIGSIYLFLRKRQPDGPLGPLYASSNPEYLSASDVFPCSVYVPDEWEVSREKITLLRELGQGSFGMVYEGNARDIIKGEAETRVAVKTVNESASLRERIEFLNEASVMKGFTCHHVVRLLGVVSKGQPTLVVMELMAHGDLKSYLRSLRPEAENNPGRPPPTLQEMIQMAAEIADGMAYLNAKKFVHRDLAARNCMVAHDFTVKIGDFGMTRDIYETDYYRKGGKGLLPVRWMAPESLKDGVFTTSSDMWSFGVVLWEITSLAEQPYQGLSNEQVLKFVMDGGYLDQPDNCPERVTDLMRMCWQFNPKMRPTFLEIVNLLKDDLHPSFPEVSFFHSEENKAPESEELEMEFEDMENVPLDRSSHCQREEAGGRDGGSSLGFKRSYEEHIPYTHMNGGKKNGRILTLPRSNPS

[6] = biological target: T3, Serine/threonine-protein kinase Nek9 (Homo sapiens, UniProt Q8TD19)
T3 sequence (Q8TD19 whole entry): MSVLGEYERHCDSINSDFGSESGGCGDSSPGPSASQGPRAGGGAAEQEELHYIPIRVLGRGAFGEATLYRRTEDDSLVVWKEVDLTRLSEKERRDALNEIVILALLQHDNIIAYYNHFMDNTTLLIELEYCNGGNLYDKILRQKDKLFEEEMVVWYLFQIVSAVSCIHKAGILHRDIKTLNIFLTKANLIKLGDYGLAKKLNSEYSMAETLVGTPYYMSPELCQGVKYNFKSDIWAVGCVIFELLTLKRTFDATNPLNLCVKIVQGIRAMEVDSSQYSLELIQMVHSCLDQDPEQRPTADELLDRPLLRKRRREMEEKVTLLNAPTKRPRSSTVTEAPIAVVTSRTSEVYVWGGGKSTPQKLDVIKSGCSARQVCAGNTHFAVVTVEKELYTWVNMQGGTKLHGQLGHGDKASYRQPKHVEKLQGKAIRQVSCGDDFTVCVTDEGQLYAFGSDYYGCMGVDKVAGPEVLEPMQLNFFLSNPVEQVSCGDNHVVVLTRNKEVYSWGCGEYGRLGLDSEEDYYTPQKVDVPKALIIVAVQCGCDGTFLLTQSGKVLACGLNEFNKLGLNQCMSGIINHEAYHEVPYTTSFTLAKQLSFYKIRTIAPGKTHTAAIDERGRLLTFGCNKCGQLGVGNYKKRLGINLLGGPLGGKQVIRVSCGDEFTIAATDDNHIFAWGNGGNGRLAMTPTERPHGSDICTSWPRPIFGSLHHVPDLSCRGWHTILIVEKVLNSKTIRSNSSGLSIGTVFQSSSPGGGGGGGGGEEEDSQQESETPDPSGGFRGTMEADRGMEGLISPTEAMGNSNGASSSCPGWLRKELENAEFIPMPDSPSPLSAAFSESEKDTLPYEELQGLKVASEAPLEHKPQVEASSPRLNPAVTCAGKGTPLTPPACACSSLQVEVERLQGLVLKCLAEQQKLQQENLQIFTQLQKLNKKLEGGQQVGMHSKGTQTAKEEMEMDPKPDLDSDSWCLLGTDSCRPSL

[7] = biological target: Tyrosine-protein kinase ABL1 (Homo sapiens, UniProt P00519)
Tyrosine-protein kinase ABL1, sequence (P00519 whole entry): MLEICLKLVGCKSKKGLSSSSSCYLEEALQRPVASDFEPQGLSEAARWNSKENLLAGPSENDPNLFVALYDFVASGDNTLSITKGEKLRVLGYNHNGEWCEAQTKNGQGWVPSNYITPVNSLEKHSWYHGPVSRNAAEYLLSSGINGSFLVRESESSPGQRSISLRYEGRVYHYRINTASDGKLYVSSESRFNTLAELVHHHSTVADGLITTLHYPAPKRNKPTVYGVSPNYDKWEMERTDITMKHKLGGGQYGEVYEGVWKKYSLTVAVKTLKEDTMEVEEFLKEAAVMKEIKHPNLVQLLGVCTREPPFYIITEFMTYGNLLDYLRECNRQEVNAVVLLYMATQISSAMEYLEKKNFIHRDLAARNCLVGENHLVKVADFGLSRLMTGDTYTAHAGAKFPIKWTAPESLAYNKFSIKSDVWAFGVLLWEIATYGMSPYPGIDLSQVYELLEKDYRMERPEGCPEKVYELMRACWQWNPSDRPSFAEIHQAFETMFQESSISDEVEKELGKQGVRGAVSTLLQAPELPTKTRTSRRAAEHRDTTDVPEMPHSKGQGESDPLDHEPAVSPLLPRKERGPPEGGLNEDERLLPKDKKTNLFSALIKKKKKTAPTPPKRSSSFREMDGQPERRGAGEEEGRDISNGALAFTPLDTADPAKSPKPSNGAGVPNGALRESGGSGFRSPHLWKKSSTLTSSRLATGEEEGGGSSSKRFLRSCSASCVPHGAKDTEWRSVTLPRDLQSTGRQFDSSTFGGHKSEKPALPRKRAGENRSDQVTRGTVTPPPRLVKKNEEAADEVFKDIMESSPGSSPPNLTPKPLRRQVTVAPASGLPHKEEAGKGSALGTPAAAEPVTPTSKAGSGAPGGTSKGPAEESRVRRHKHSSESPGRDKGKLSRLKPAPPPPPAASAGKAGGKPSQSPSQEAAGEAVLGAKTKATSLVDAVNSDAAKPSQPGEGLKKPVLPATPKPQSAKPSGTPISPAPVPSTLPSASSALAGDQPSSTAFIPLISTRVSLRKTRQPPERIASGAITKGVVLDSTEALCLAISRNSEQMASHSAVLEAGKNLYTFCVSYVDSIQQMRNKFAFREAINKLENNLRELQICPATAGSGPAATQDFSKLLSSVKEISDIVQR

[8] = biological target: Serine/threonine-protein kinase SIK2 (Homo sapiens, UniProt Q9H0K1)
[9] = biological target: T4, MAP kinase-activated protein kinase 5 (Homo sapiens, UniProt Q8IW41)
T4 sequence (Q8IW41 whole entry): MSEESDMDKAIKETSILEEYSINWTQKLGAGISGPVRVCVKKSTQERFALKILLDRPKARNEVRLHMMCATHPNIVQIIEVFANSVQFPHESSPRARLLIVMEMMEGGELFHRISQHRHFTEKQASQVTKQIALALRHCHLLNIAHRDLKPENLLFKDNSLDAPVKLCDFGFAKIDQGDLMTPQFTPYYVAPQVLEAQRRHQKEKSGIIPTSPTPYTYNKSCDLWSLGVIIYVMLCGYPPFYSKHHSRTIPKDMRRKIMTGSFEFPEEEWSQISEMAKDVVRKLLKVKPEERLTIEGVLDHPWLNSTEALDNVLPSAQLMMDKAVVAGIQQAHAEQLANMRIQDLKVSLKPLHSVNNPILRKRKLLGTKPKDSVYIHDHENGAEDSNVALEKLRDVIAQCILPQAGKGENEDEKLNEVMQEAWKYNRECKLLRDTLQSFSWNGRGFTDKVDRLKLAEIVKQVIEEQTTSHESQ

[10] = biological target: Insulin-like growth factor 1 receptor (Homo sapiens, UniProt P08069)
Also: in the data inactive means no Kd found up to 30 µM.

Structure (SMILES) | Kd [1] | Kd (Myosin-14) | Kd [2] | Kd [3] | Kd [4] | Kd [5] | Kd (Insulin receptor) | Kd [6] | Kd [7] | Kd [8] | Kd [9] | Kd [10] | pKd [3] | pKd [7] | pKd [5]
Cc1c(NC(=O)OC[C@@H]2COCCN2)cn2ncnc(Nc3ccc4c(cnn4Cc4cccc(F)c4)c3)c12 [AC-480] | > 30 µM (inactive) | > 30 µM (inactive) | > 30 µM (inactive) | > 30 µM (inactive) | > 30 µM (inactive) | > 30 µM (inactive) | > 30 µM (inactive) | > 30 µM (inactive) | > 30 µM (inactive) | > 30 µM (inactive) | > 30 µM (inactive) | > 30 µM (inactive) | – | – | –
CCc1cc2c(cc1N1CCC(N3CCOCC3)CC1)C(C)(C)c1[nH]c3cc(C#N)ccc3c1C2=O [ALECTINIB] | > 30 µM (inactive) | > 30 µM (inactive) | > 30 µM (inactive) | > 30 µM (inactive) | > 30 µM (inactive) | > 30 µM (inactive) | > 30 µM (inactive) | > 30 µM (inactive) | > 30 µM (inactive) | > 30 µM (inactive) | > 30 µM (inactive) | > 30 µM (inactive) | – | – | –
COc1ccc2c(OCc3nnc4ccc(-c5ccccc5)nn34)ccnc2c1 [AMG-208] | > 30 µM (inactive) | > 30 µM (inactive) | > 30 µM (inactive) | > 30 µM (inactive) | > 30 µM (inactive) | > 30 µM (inactive) | > 30 µM (inactive) | > 30 µM (inactive) | > 30 µM (inactive) | > 30 µM (inactive) | > 30 µM (inactive) | > 30 µM (inactive) | – | – | –
S=C(NCc1ccc2c(c1)OCO2)N1CCN(c2ncnc3c2oc2ccccc23)CC1 [AMUVATINIB] | > 30 µM (inactive) | > 30 µM (inactive) | > 30 µM (inactive) | > 30 µM (inactive) | > 30 µM (inactive) | > 30 µM (inactive) | > 30 µM (inactive) | > 30 µM (inactive) | > 30 µM (inactive) | > 30 µM (inactive) | > 30 µM (inactive) | > 30 µM (inactive) | – | – | –
NC[C@@](O)(c1ccc(Cl)cc1)c1ccc(-c2cn[nH]c2)cc1 [AT-13148] | > 30 µM (inactive) | > 30 µM (inactive) | > 30 µM (inactive) | > 30 µM (inactive) | > 30 µM (inactive) | > 30 µM (inactive) | > 30 µM (inactive) | > 30 µM (inactive) | > 30 µM (inactive) | > 30 µM (inactive) | > 30 µM (inactive) | > 30 µM (inactive) | – | – | –
Cc1cc(Nc2nc(N[C@@H](C)c3ncc(F)cn3)ncc2Cl)n[nH]1 [AZD-1480] | > 30 µM (inactive) | > 30 µM (inactive) | > 30 µM (inactive) | > 30 µM (inactive) | > 30 µM (inactive) | > 30 µM (inactive) | > 30 µM (inactive) | > 30 µM (inactive) | > 30 µM (inactive) | > 30 µM (inactive) | > 30 µM (inactive) | > 30 µM (inactive) | – | – | –
COc1ccc(-c2ccc3ncc4c(c3c2)n(-c2ccc(N3CCNCC3)c(C(F)(F)F)c2)c(=O)n4C)cn1 [BGT-226 FREE BASE] | > 30 µM (inactive) | > 30 µM (inactive) | > 30 µM (inactive) | > 30 µM (inactive) | > 30 µM (inactive) | > 30 µM (inactive) | > 30 µM (inactive) | > 30 µM (inactive) | > 30 µM (inactive) | > 30 µM (inactive) | > 30 µM (inactive) | > 30 µM (inactive) | – | – | –
COc1cccc(Nc2ncnn3ccc(CN4CC[C@@H](N)[C@H](O)C4)c23)c1 [BMS-690514] | > 30 µM (inactive) | > 30 µM (inactive) | > 30 µM (inactive) | 0.738 µM (active) | > 30 µM (inactive) | > 30 µM (inactive) | > 30 µM (inactive) | > 30 µM (inactive) | 0.128 µM (active) | 0.048 µM (active) | > 30 µM (inactive) | > 30 µM (inactive) | – | – | –
COc1cc2nccc(Oc3ccc(NC(=O)C4(C(=O)Nc5ccc(F)cc5)CC4)cc3)c2cc1OC [CABOZANTINIB] | > 30 µM (inactive) | > 30 µM (inactive) | > 30 µM (inactive) | > 30 µM (inactive) | > 30 µM (inactive) | > 30 µM (inactive) | > 30 µM (inactive) | > 30 µM (inactive) | 1.1 µM (active) | > 30 µM (inactive) | > 30 µM (inactive) | > 30 µM (inactive) | – | – | –
c1cc(OCCN2CCCCC2)cc(-c2n[nH]c3ccc(-c4nc[nH]n4)cc23)c1 [CC-401] | 1.41 µM (active) | > 30 µM (inactive) | > 30 µM (inactive) | > 30 µM (inactive) | > 30 µM (inactive) | > 30 µM (inactive) | > 30 µM (inactive) | > 30 µM (inactive) | > 30 µM (inactive) | > 30 µM (inactive) | > 30 µM (inactive) | > 30 µM (inactive) | – | – | –
COc1cc2ncnc(Nc3ccc(F)c(Cl)c3)c2cc1NC(=O)/C=C/CN1CCCCC1 [DACOMITINIB ANHYDROUS] | > 30 µM (inactive) | > 30 µM (inactive) | > 30 µM (inactive) | > 30 µM (inactive) | > 30 µM (inactive) | > 30 µM (inactive) | > 30 µM (inactive) | > 30 µM (inactive) | > 30 µM (inactive) | > 30 µM (inactive) | > 30 µM (inactive) | > 30 µM (inactive) | – | – | –
CC[C@@](C)(Nc1ccnc(-c2c[nH]c3ncccc23)n1)C(=O)NCC(F)(F)F [DECERNOTINIB] | > 30 µM (inactive) | > 30 µM (inactive) | > 30 µM (inactive) | – | > 30 µM (inactive) | > 30 µM (inactive) | > 30 µM (inactive) | > 30 µM (inactive) | – | > 30 µM (inactive) | > 30 µM (inactive) | > 30 µM (inactive) | 4.85 | 6.07 | –
CNC(=O)c1ccc(Nc2ncc(C(F)(F)F)c(NCc3nccnc3N(C)S(C)(=O)=O)n2)cc1 [DEFACTINIB] | > 30 µM (inactive) | > 30 µM (inactive) | > 30 µM (inactive) | > 30 µM (inactive) | > 30 µM (inactive) | – | > 30 µM (inactive) | > 30 µM (inactive) | > 30 µM (inactive) | > 30 µM (inactive) | > 30 µM (inactive) | > 30 µM (inactive) | – | – | 5.70
